These results are taken from paper PMC8605905 (Oxidative Medicine and Cellular Longevity, 2021).

The experiment relates to ∆K280 tauRD-DsRed SH-SY5Y cells. Description: Western blot in ΔK280 tauRD-DsRed SH-SY5Y cells. It counts as cell-based, Human. The conditions noted are these: LM-021 10 μM, immunoblot. As to the method: To monitor the cAMP-mediated signal transduction pathway, CRE-GFP 293 cells in 6-well plates (1 × 10^6/well) were pretreated with kinase inhibitor H-89 (LC Laboratories, Woburn, MA, USA), KN-62 (Cayman Chemical, Ann Arbor, MI, USA), U0126 (LC Laboratories), or wortmannin (LC Laboratories) (10 μM) for 4 h before forskolin or LM-021 (10 μM) addition for 5 h. GFP fluorescence/protein and total/phosphorylated PKA, CaMKII, ERK, PI3K, and CREB levels were examined. In addition, Aβ-GFP or ∆K280 tauRD-DsRed SH-SY5Y cells were treated with retinoic acid (10 μM) on day 1, followed by the addition of LM-021 (5 or 10 μM) and doxycycline (5 or 2 μg/ml) on day 2, as described. Kinase inhibitors (10 μM) were added on day 6. On day 8, the cells were collected for protein expression analysis of BDNF, BCL2 (BCL2 apoptosis regulator), and BAX (BCL2 associated X, apoptosis regulator), and total/phosphorylated PKA, CaMKII, ERK, PI3K, and CREB. Also, cells were stained with DAPI and assessed for neurite outgrowth as described above.
Total proteins from CRE-GFP 293 and Aβ-GFP, ∆K280 tauRD-DsRed SH-SY5Y cells were extracted using lysis buffer (50 mM Tris-HCl (pH 8.0), 150 mM NaCl, 1 mM EDTA (pH 8.0), 1 mM EGTA (pH 8.0), 0.1% SDS, 0.5% sodium deoxycholate, 1% Triton X-100) containing phosphatase and protease inhibitor cocktails (Sigma-Aldrich). Protein concentrations were measured using a protein assay kit (Bio-Rad, Hercules, CA, USA), and 20 μg of proteins was separated with 10% SDS-PAGE and blotted onto polyvinylidene difluoride (PVDF) membranes (Sigma-Aldrich). After blocking, the membrane blot was incubated with primary antibody against GFP (1 : 500; Santa Cruz Biotechnology, Santa Cruz, CA, USA), PKA (1 : 1000; R&D Systems, Minneapolis, MN, USA), p-PKA (T197) (1 : 1000; Cell Signaling, Danvers, MA, USA), ERK (1 : 500; Cell Signaling), p-ERK (T202/Y204) (1 : 500; Cell Signaling), CaMKII (1 : 1000; Santa Cruz Biotechnology), p-CaMKII (T286) (1 : 1000; Cell Signaling), CREB (1 : 1000; Santa Cruz Biotechnology), p-CREB (S133) (1 : 1000; Millipore, Billerica, MA, USA), BDNF (1 : 500; Santa Cruz Biotechnology), BCL2 (1 : 500; BioVision), BAX (1 : 500; BioVision), GAPDH (glyceraldehyde-3-phosphate dehydrogenase, as a loading control) (1 : 1000; MDBio, Taipei, Taiwan), or β-tubulin (1 : 1000, Sigma-Aldrich, as a loading control). The immune complexes were visualized using horseradish peroxidase-conjugated goat anti-mouse or goat anti-rabbit IgG antibody (1 : 5000, GeneTex, Irvine, CA, USA) and a chemiluminescent substrate (Millipore).
For orientation: In western blotting, separated proteins are transferred to a membrane and probed.

`CN(C)c1ccc(/C=C/C(=O)c2c(O)c3ccccc3oc2=O)cc1` [LM-021, (E)-3-(3-(4-(dimethylamino)phenyl)acryloyl)-4-hydroxy-2H-chromen-2-one]: the BAX protein level entry is given as “decreased”; the “Level of PKA, CaMKII, or ERK” value was “nor LM-021 treatment significantly altered”; the “p-CREB, CREB, pro-BDNF, m-BDNF, and BCL2 protein levels” value was “significantly upregulated”; the “p-PKA, p-CaMKII, and p-ERK protein levels” value is on record as “increased”.
